Experimental data from the kinase profiling compilation of Christmann-Franck et al. (2016).

Experiments:
Assay in all cases: radiometric filter-binding kinase assay
IRAK4 (human) = IRAK4 (human) (UniProt Q9NWZ3); conditions: compound 1000.0 µM
DYRK1A (human) = DYRK1A (human) (UniProt Q13627)
RPS6KA1 KD1 KD2 (human) = RPS6KA1 KD1 KD2 (human) (UniProt Q15418)
EPHB3 (human) = EPHB3 (human) (UniProt P54753)
ROCK2 (rat) = conditions: accession and sequence are those of the human protein
MAP3K11 (human) = MAP3K11 (human) (UniProt Q16584)
MAPK8 (human) = MAPK8 (human) (UniProt P45983)
MAPK8 (human), sequence (P45983 whole entry, looked up): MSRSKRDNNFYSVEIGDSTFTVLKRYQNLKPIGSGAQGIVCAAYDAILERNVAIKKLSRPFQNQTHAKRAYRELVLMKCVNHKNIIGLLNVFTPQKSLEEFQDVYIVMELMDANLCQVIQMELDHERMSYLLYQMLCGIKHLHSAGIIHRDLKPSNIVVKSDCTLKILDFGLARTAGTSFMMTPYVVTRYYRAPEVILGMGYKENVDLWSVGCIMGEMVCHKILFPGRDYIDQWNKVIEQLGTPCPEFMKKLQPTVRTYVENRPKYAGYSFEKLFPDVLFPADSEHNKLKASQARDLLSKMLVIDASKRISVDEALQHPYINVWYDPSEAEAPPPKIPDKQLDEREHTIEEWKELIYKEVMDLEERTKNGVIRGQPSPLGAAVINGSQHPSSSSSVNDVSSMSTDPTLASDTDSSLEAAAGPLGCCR

[1] = tested on: SGK1 (human), O00141 [S422D]
SGK1 (human), O00141 [S422D], sequence (O00141 whole entry S422D, looked up): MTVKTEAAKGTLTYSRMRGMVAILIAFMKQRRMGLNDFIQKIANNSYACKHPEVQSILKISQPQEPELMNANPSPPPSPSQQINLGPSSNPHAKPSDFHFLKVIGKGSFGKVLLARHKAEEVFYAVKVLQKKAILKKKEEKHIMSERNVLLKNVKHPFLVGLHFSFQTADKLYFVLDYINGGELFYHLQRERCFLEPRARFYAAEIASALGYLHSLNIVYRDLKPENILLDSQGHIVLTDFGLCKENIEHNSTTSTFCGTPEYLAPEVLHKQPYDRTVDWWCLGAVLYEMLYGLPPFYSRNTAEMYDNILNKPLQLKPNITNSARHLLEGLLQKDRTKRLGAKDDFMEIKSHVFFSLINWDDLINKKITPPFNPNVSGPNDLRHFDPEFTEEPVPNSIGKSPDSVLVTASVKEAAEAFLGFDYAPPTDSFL

MAPK3 (human) = MAPK3 (human) (UniProt P27361)
MAPK3 (human), sequence (P27361 whole entry, looked up): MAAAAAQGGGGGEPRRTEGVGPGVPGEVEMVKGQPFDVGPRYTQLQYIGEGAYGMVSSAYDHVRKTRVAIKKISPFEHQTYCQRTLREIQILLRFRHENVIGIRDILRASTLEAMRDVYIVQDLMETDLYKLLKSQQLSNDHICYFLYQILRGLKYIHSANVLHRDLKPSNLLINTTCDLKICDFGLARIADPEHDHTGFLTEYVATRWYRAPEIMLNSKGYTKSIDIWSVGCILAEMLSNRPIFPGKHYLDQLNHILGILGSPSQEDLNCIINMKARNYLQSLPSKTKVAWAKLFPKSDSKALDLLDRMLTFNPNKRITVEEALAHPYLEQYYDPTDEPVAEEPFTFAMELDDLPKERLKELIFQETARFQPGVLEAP

MAPK12 (human) = MAPK12 (human) (UniProt P53778)
MAPK12 (human), sequence (P53778 whole entry, looked up): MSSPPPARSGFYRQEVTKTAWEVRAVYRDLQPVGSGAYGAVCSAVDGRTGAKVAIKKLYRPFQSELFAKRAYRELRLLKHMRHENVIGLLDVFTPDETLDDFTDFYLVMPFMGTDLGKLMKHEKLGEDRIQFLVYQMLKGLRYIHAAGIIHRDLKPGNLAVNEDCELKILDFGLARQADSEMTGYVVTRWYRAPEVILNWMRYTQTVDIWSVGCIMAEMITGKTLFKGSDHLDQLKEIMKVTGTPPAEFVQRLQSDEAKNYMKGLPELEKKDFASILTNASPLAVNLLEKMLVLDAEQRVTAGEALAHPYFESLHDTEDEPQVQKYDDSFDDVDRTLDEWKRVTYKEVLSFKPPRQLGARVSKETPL

MAP2K6 (human) = MAP2K6 (human) (UniProt P52564)
PIM3 (human) = PIM3 (human) (UniProt Q86V86)
PAK4 (human) = PAK4 (human) (UniProt O96013)
PAK4 (human), sequence (O96013 whole entry, looked up): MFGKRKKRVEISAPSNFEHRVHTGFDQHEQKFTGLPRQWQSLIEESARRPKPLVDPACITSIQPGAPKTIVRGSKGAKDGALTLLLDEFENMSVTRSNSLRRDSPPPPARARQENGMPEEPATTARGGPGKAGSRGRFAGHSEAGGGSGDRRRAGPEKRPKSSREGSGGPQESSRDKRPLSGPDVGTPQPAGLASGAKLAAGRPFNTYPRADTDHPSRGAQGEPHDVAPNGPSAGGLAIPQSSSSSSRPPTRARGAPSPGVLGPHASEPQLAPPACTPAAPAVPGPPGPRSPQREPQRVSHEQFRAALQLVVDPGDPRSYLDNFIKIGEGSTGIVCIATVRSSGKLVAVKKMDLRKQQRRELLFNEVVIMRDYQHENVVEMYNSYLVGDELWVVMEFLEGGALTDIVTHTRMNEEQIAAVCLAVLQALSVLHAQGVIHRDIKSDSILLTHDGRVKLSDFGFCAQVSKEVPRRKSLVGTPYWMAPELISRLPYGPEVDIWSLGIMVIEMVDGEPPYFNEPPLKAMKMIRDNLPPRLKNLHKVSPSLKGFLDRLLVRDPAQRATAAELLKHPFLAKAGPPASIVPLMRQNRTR

MAPK14 (human) = MAPK14 (human) (UniProt Q16539)
IKBKE (human) = IKBKE (human) (UniProt Q14164)
IKBKE (human), sequence (Q14164 whole entry, looked up): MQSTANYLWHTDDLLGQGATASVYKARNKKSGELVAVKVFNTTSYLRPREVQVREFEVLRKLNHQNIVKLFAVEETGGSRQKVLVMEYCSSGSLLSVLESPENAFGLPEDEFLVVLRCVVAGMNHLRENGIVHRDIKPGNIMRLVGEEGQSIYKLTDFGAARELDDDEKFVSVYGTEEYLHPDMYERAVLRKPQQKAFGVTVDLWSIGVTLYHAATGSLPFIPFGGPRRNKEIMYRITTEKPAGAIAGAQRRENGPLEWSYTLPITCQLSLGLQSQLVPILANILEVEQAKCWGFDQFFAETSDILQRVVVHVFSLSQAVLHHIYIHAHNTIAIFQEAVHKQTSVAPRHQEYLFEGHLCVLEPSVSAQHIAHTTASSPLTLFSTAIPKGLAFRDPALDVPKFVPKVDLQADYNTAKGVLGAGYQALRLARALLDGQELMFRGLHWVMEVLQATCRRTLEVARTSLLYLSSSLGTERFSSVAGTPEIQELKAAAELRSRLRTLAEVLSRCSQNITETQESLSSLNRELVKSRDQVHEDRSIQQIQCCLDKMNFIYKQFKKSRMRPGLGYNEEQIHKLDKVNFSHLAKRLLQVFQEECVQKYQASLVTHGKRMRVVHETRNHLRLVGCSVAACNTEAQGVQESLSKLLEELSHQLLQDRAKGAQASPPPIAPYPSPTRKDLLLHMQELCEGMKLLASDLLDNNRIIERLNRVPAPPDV

PLK1 (human) = PLK1 (human) (UniProt P53350)
PLK1 (human), sequence (P53350 whole entry, looked up): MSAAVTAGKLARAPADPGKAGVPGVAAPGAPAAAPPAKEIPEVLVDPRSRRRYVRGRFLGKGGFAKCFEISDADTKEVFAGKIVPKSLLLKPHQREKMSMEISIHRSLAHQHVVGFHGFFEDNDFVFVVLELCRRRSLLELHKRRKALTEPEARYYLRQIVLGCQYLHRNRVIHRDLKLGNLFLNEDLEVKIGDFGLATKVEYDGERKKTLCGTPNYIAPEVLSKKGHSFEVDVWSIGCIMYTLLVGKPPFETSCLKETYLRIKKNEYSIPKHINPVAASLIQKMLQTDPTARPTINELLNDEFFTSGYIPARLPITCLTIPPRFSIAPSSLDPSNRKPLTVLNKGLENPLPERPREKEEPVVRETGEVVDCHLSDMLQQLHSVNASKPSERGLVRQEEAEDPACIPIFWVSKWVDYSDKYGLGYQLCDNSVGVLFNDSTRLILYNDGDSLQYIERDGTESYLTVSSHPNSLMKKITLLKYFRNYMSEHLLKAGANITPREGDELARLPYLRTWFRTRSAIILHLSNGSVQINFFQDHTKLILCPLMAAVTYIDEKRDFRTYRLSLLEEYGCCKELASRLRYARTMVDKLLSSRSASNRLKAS

NTRK1 (human) = NTRK1 (human) (UniProt P04629)

EPHB3 (human), sequence (P54753 whole entry, looked up): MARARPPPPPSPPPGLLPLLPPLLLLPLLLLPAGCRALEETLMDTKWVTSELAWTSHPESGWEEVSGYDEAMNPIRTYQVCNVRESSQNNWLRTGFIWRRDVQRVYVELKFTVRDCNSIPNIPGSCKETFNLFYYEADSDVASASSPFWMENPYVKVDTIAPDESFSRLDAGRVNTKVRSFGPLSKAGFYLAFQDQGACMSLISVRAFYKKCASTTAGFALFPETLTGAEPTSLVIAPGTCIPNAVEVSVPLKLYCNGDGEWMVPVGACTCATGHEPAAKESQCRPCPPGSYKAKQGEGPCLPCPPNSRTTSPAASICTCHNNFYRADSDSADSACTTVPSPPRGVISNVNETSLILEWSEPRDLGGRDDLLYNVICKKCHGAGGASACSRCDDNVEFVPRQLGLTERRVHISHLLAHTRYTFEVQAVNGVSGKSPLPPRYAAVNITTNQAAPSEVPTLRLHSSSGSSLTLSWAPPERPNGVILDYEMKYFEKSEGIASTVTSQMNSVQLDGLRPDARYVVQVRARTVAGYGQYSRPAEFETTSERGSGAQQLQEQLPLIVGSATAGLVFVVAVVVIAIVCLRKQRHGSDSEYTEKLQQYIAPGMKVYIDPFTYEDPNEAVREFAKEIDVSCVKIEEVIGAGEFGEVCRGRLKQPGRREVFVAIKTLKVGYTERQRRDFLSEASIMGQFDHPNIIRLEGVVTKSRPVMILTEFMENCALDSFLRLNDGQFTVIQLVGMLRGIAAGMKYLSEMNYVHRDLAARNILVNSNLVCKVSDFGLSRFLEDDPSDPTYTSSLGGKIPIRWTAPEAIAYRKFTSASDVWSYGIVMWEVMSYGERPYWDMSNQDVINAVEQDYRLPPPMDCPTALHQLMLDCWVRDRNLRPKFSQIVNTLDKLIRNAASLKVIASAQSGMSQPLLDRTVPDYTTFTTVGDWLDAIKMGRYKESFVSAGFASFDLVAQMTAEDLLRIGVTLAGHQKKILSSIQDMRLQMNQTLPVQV

COC(=O)/C=C/C(=O)OC
residual activity (IRAK4 (human)): 117%
residual activity (DYRK1A (human); compound 10.0 µM): 105%
residual activity (DYRK1A (human); compound 100.0 µM): 109%
residual activity (DYRK1A (human); compound 1000.0 µM): 113%
residual activity (RPS6KA1 KD1 KD2 (human); compound 10.0 µM): 91%
residual activity (RPS6KA1 KD1 KD2 (human); compound 100.0 µM): 92%
residual activity (RPS6KA1 KD1 KD2 (human); compound 1000.0 µM): 90%
residual activity (EPHB3 (human); compound 10.0 µM): 97%
residual activity (EPHB3 (human); compound 100.0 µM): 105%
residual activity (EPHB3 (human); compound 1000.0 µM): 114%
residual activity (ROCK2 (rat); compound 10.0 µM): 81%
residual activity (ROCK2 (rat); compound 100.0 µM): 89%
residual activity (ROCK2 (rat); compound 1000.0 µM): 98%
residual activity (MAP3K11 (human); compound 10.0 µM): 100%
residual activity (MAP3K11 (human); compound 100.0 µM): 97%
residual activity (MAPK8 (human); compound 10.0 µM): 99%
residual activity (MAPK8 (human); compound 100.0 µM): 92%
residual activity (MAPK8 (human); compound 1000.0 µM): 109%
residual activity ([1]; compound 10.0 µM): 93%
residual activity ([1]; compound 100.0 µM): 96%
residual activity ([1]; compound 1000.0 µM): 100%
residual activity (MAPK3 (human); compound 10.0 µM): 95%
residual activity (MAPK3 (human); compound 100.0 µM): 99%
residual activity (MAPK3 (human); compound 1000.0 µM): 100%
residual activity (MAPK12 (human); compound 10.0 µM): 87%
residual activity (MAPK12 (human); compound 100.0 µM): 96%
residual activity (MAPK12 (human); compound 1000.0 µM): 104%
residual activity (MAP2K6 (human); compound 10.0 µM): 92%
residual activity (MAP2K6 (human); compound 100.0 µM): 88%
residual activity (PIM3 (human); compound 10.0 µM): 96%
residual activity (PIM3 (human); compound 100.0 µM): 106%
residual activity (PIM3 (human); compound 1000.0 µM): 92%
residual activity (PAK4 (human); compound 10.0 µM): 76%
residual activity (PAK4 (human); compound 100.0 µM): 88%
residual activity (PAK4 (human); compound 1000.0 µM): 95%
residual activity (MAPK14 (human); compound 10.0 µM): 90%
residual activity (MAPK14 (human); compound 100.0 µM): 99%
residual activity (MAPK14 (human); compound 1000.0 µM): 106%
residual activity (IKBKE (human); compound 10.0 µM): 80%
residual activity (IKBKE (human); compound 100.0 µM): 96%
residual activity (IKBKE (human); compound 1000.0 µM): 93%
residual activity (PLK1 (human); compound 10.0 µM): 94%
residual activity (PLK1 (human); compound 100.0 µM): 100%
residual activity (PLK1 (human); compound 1000.0 µM): 91%
residual activity (NTRK1 (human); compound 10.0 µM): 88%
residual activity (NTRK1 (human); compound 100.0 µM): 96%
residual activity (NTRK1 (human); compound 1000.0 µM): 83%
